Experimental data taken from ChEMBL document CHEMBL4385591, “Structural studies of the binding of an antagonistic cyclic peptide to the VEGFR1 domain 2” (Eur J Med Chem, 2019).
Calls of active or inactive are those of the source. The calls are words filed in the database; no cut-off is given here. Peptide text beside a SMILES is read from it.

Experiments:
HUVEC = conditions: Homo sapiens, 50 uM
Description: Antiangiogenic activity in HUVEC cells assessed as inhibition of VEGF-A-induced microtube formation at 50 uM pre-incubated for 15 mins followed by VEGF-A stimulation for 4 hrs by matrigel based capillary tube formation assay

RF/6A = conditions: Macaca mulatta, 50 uM
Description: Antiangiogenic activity in rhesus monkey RF/6A cells assessed as inhibition of VEGF-A-induced microtube formation at 50 uM pre-incubated for 15 mins followed by VEGF-A stimulation for 4 hrs by matrigel based capillary tube formation assay

**Q.** What does the source list for CC(C)C[C@@H]1NC(=O)CNC(=O)[C@H](CCC(=O)O)NC(=O)[C@H](CC(=O)O)NC(=O)[C@H](CCCCN)NC(=O)[C@H](Cc2ccc(O)cc2)NC(=O)CC[C@@H](C(=O)NCCc2ccc(O)c(O)c2)NC(=O)[C@H](CCC(=O)O)NC1=O (HELM PEPTIDE1{Y.K.D.E.G.L.E.E.[Oc1ccc(CCN[*:1])cc1O]}$PEPTIDE1,PEPTIDE1,1:R1-8:R3$$$V2.0)?
**A.** inhibition (HUVEC): Active; inhibition (RF/6A): Active
